Source: ChEMBL document CHEMBL3734734, “Synthesis and antibacterial activity of trivalent ultrashort Arg-Trp-based antimicrobial peptides (AMPs)” (2015)
Values after ≈ are worked out from the molar mass of the structure shown.

Experiments:
Assay type in all cases: functional
Acinetobacter baumannii = assay: Antibacterial activity against Acinetobacter baumannii DSM 30007 after 16 hrs by microdilution assay; conditions: DSM 30007, 16 h
Staphylococcus aureus [1] = assay: Antibacterial activity against methicillin-resistant Staphylococcus aureus ATCC 43300 after 16 hrs by microdilution assay; conditions: ATCC 43300, 16 h
Bacillus subtilis = assay: Antibacterial activity against Bacillus subtilis 168 after 16 hrs by microdilution assay; conditions: subsp. subtilis str. 168, 16 h
Staphylococcus aureus [2] = assay: Antibacterial activity against Staphylococcus aureus DSM 20231 after 16 hrs by microdilution assay; conditions: DSM 20231, 16 h
Escherichia coli = assay: Antibacterial activity against Escherichia coli DSM 30083 after 16 hrs by microdilution assay; conditions: DSM 30083 = JCM 1649 = ATCC 11775, 16 h

Row | Molecule | MIC (Acinetobacter baumannii) [µM] | MIC (Staphylococcus aureus [1]) [µM] | MIC (Bacillus subtilis) [µM] | MIC (Staphylococcus aureus [2]) [µM] | MIC (Escherichia coli) [µM]
1 | N=C(N)NCCC[C@H](NC(=O)[C@@H](Cc1c[nH]c2ccccc12)NCc1cn(Cc2cc(Cn3cc(CN[C@H](Cc4c[nH]c5ccccc45)C(=O)N[C@@H](CCCNC(=N)N)C(=O)N[C@H](Cc4c[nH]c5ccccc45)C(=O)O)nn3)cc(Cn3cc(CN[C@H](Cc4c[nH]c5ccccc45)C(=O)N[C@@H](CCCNC(=N)N)C(=O)N[C@H](Cc4c[nH]c5ccccc45)C(=O)O)nn3)c2)nn1)C(=O)N[C@H](Cc1c[nH]c2ccccc12)C(=O)O (stereo in doubt) | > 100 | 12 (≈ 24 µg/mL) | 3 (≈ 5.99 µg/mL) | > 100 | 12 (≈ 24 µg/mL)
2 | CCc1c(Cn2cc(CN[C@@H](CCCNC(=N)N)C(=O)N[C@@H](Cc3c[nH]c4ccccc34)C(=O)O)nn2)c(CC)c(Cn2cc(CN[C@@H](CCCNC(=N)N)C(=O)N[C@@H](Cc3c[nH]c4ccccc34)C(=O)O)nn2)c(CC)c1Cn1cc(CN[C@@H](CCCNC(=N)N)C(=O)N[C@@H](Cc2c[nH]c3ccccc23)C(=O)O)nn1 | 15 (≈ 22.8 µg/mL) | 7.3 (≈ 11.1 µg/mL) | 1.8 (≈ 2.74 µg/mL) | 7.3 (≈ 11.1 µg/mL) | 60 (≈ 91.4 µg/mL)
3 | N=C(N)NCCC[C@H](NCc1cn(Cc2cc(Cn3cc(CN[C@@H](CCCNC(=N)N)C(=O)N[C@@H](Cc4c[nH]c5ccccc45)C(=O)O)nn3)cc(Cn3cc(CN[C@@H](CCCNC(=N)N)C(=O)N[C@@H](Cc4c[nH]c5ccccc45)C(=O)O)nn3)c2)nn1)C(=O)N[C@@H](Cc1c[nH]c2ccccc12)C(=O)O | 30 (≈ 43.2 µg/mL) | 15 (≈ 21.6 µg/mL) | 3.8 (≈ 5.47 µg/mL) | 30 (≈ 43.2 µg/mL) | 60 (≈ 86.3 µg/mL)
4 | N=C(N)NCCC[C@H](NC(=O)[C@H](Cc1c[nH]c2ccccc12)NC(=O)[C@@H](N)CCCNC(=N)N)C(=O)NCc1cn(Cc2ccccc2)nn1 | > 100 | 70 (≈ 48.1 µg/mL) | 35 (≈ 24 µg/mL) | > 100 | > 100
5 | O=C(O)c1cn(C2CC2)c2cc(N3CCNCC3)c(F)cc2c1=O [CIPROFLOXACIN] | 24 (≈ 7.95 µg/mL) | 12 (≈ 3.98 µg/mL) | 24 (≈ 7.95 µg/mL) | 12 (≈ 3.98 µg/mL) | 1.5 (≈ 0.497 µg/mL)
6 | H-RWRWRW-NH2 | 21 | 5.3 | 1.3 | 11 | 21
7 | CCc1c(Cn2cc(CN[C@@H](CCCNC(=N)N)C(=O)N[C@@H](Cc3c[nH]c4ccccc34)C(=O)N[C@@H](CCCNC(=N)N)C(=O)O)nn2)c(CC)c(Cn2cc(CN[C@@H](CCCNC(=N)N)C(=O)N[C@@H](Cc3c[nH]c4ccccc34)C(=O)N[C@@H](CCCNC(=N)N)C(=O)O)nn2)c(CC)c1Cn1cc(CN[C@@H](CCCNC(=N)N)C(=O)N[C@@H](Cc2c[nH]c3ccccc23)C(=O)N[C@@H](CCCNC(=N)N)C(=O)O)nn1 | 26 (≈ 51.8 µg/mL) | 13 (≈ 25.9 µg/mL) | 3 (≈ 5.97 µg/mL) | 13 (≈ 25.9 µg/mL) | 13 (≈ 25.9 µg/mL)
8 | N=C(N)NCCC[C@H](NC(=O)[C@H](Cc1c[nH]c2ccccc12)NCc1cn(Cc2cc(Cn3cc(CN[C@@H](Cc4c[nH]c5ccccc45)C(=O)N[C@@H](CCCNC(=N)N)C(=O)O)nn3)cc(Cn3cc(CN[C@@H](Cc4c[nH]c5ccccc45)C(=O)N[C@@H](CCCNC(=N)N)C(=O)O)nn3)c2)nn1)C(=O)O | 60 (≈ 86.3 µg/mL) | 15 (≈ 21.6 µg/mL) | 7.6 (≈ 10.9 µg/mL) | 30 (≈ 43.2 µg/mL) | 60 (≈ 86.3 µg/mL)
9 | CCc1c(Cn2cc(CN[C@@H](Cc3c[nH]c4ccccc34)C(=O)N[C@@H](CCCNC(=N)N)C(=O)O)nn2)c(CC)c(Cn2cc(CN[C@@H](Cc3c[nH]c4ccccc34)C(=O)N[C@@H](CCCNC(=N)N)C(=O)O)nn2)c(CC)c1Cn1cc(CN[C@@H](Cc2c[nH]c3ccccc23)C(=O)N[C@@H](CCCNC(=N)N)C(=O)O)nn1 | 15 (≈ 22.8 µg/mL) | 7.3 (≈ 11.1 µg/mL) | 2.2 (≈ 3.35 µg/mL) | 15 (≈ 22.8 µg/mL) | 15 (≈ 22.8 µg/mL)
10 | CCc1c(Cn2cc(CN[C@H](Cc3c[nH]c4ccccc34)C(=O)N[C@@H](CCCNC(=N)N)C(=O)N[C@H](Cc3c[nH]c4ccccc34)C(=O)O)nn2)c(CC)c(Cn2cc(CN[C@H](Cc3c[nH]c4ccccc34)C(=O)N[C@@H](CCCNC(=N)N)C(=O)N[C@H](Cc3c[nH]c4ccccc34)C(=O)O)nn2)c(CC)c1Cn1cc(CN[C@H](Cc2c[nH]c3ccccc23)C(=O)N[C@@H](CCCNC(=N)N)C(=O)N[C@H](Cc2c[nH]c3ccccc23)C(=O)O)nn1 (stereo in doubt) | 32 (≈ 66.6 µg/mL) | 2 (≈ 4.16 µg/mL) | 1 (≈ 2.08 µg/mL) | 4 (≈ 8.33 µg/mL) | 16 (≈ 33.3 µg/mL)
11 | N=C(N)NCCC[C@H](NC(=O)[C@H](Cc1c[nH]c2ccccc12)NC(=O)[C@H](CCCNC(=N)N)NCc1cn(Cc2cc(Cn3cc(CN[C@@H](CCCNC(=N)N)C(=O)N[C@@H](Cc4c[nH]c5ccccc45)C(=O)N[C@@H](CCCNC(=N)N)C(=O)O)nn3)cc(Cn3cc(CN[C@@H](CCCNC(=N)N)C(=O)N[C@@H](Cc4c[nH]c5ccccc45)C(=O)N[C@@H](CCCNC(=N)N)C(=O)O)nn3)c2)nn1)C(=O)O | 54 (≈ 103 µg/mL) | 13 (≈ 24.8 µg/mL) | 6 (≈ 11.4 µg/mL) | 27 (≈ 51.5 µg/mL) | 13 (≈ 24.8 µg/mL)
